Assay results as given in patent US10688084B2 (priority 2016, dated 2020).
Where two headings read alike, the source gives them in different places.

How the values were obtained:
[1] = tested on: acute inflammation; conditions: literature value; cited from earlier work
[2] = cited from earlier work
[3] = literature value; cited from earlier work
[4] = tested on: Wistar rats; conditions: prototype of RU 2513089; cited from earlier work
[5] = tested on: subacute (formalin) edema; conditions: prototype of RU 2513089; cited from earlier work
[6] = tested on: Wistar rats; format: in vivo; conditions: for Analgesic effect, total/analgesic effect / Paw volume 0 hours / Paw volume 3 hours / Analgesic effect, %: 15 mg/kg
Description: In the study of analgesic properties of the formula I compound, were taken female and male Wistar rats aged 6-7 weeks with a body mass of 180-220 g. The number of animals in each group was 10.
[…] inflammation was modeled in rats by subplantar administration of 0.1 ml of a 1% solution of carrageenin (a sulfated polysaccharide from Irish sea moss) into the right hind paw. The substance was administered intragastrically using a gastric probe.
Inflammatory hyperalgesia (increased pain sensitivity of inflamed tissues in rats) was caused by carrageenin and was assessed by decrease of the pain sensitivity threshold—PST (by PST difference) to mechanical irritation (squeezing) of the paw tissue of the animal before the introduction of carrageenin and 3 hours after it. The measurement was performed on the inflamed paw. Used analgesimeter Ugo Basile S.R.L. (Italy) provides a gradual increased afterload on the rat's inflamed paw until a pain reaction appears (assessed by squeaking of animal or withdrawing the paw). The analyte was administered 2 h after carrageenin administration. […] An increase in the pain response threshold under the influence of the substances under study was expressed in an increase in the force of compression of the limb and characterized the intensity of the analgesic effect of the preparation. After the experiment, animals were euthanized by carbon dioxide inhalation method.
The introduction to rats was carried out in the amount of no more than 1 ml/100 g. The concentration of the resulting solution was 5 mg/ml.
To prepare a dose of 20 mg/kg, 40 ml of solution with a concentration of 5 mg/ml (50 mg/kg) were taken, transferred to a 100 ml measuring flask with accuracy class A, adjusted to 100 ml with 0.5% water solution of Tween-80 and the suspension was dispersed to a homogeneous consistency using a dispersant.
To prepare a dose of 10 mg/kg, 20 ml of solution with a concentration of 5 mg/ml (50 mg/kg) were taken, transferred to a 100 ml measuring flask with accuracy class A, adjusted to 100 ml with 0.5% aqueous solution of Tween-80 and the suspension was stirred to a homogeneous consistency with a magnetic stirrer MR Hei-Standard (Heidolph, Germany).
To prepare a dose of 5 mg/kg, […] of solution with a concentration of 5 mg/ml (50 mg/kg) were taken, transferred to a 100 ml measuring flask with accuracy class A, adjusted to 100 ml with 0.5% water solution of Tween-80 and the suspension was stirred to a homogeneous consistency with a magnetic stirrer.

[7] = tested on: cyclooxygenase (COX); test: COX activity assay (fluorometric kit, peroxidase activity) with skin fibroblast (HSF) cell lysate; format: biochemical; conditions: fibroblast cell lysate, 1.25 to 20 μM in the well
[8] = tested on: Wistar rats; format: in vivo; conditions: for Δ t after 2 hours, (M ± SD) / Δ t after 3 hours, (M ± SD) / Δ t after 4 hours, (M ± SD) / Δ t after 5 hours, (M ± SD) / Δ t after 6 hours, (M ± SD) / Δ t after 7 hours, (M ± SD): 15 mg/kg
Description: In the study of antipyretic properties of the formula I compound, were taken female and male Wistar rats aged 6-7 weeks, with a body mass of 180-220 g. The number of animals in each group was 10.
The febrile reaction was caused by subcutaneous administration of a 20% suspension of baking yeast. The rectal temperature was measured with an electrothermometer prior to the introduction of yeast and 18 hours after it (the difference of these measurements is the estimated hyperthermic reaction). The preparation was administered to animals at the peak of hyperthermia once (after 18 hours). The antipyretic effect was evaluated by hyperthermia decrease 2 hours after the injection of the test substance, and then the effect dynamics was recorded at hourly intervals for 7 hours.
The introduction to rats was carried out in the amount of no more than 1 ml/100 g. The concentration of the resulting solution was 7.5 mg/ml.
The difference in temperature after preparation administration and after 18 hours of induction with yeast was taken as the parameter of hyperthermia decrease.
Animals were observed individually after administration throughout the study. […] Wilcoxon nonparametric criterion was used for statistical comparison of experimental groups. Differences were determined at the 0.05 level of significance. The statistical analysis was carried out using the R-studio program.

CC(C)Cc1ccc(C(C)C(=O)O)cc1 (racemic) [Ibuprofen, (RS)-2-(4-isobutylphenyl) propionic acid]
ED50 acute inflammation [1]: 48 mg/kg
UD50 ([2]; literature value): 310 mg/kg
LD50 [3]: 750 mg/kg

COc1ccc2c(c1)c(CC(=O)O)c(C)n2C(=O)c1ccc(Cl)cc1 [Indomethacin, 1-(4-chlorobenzoyl)-5-methoxy-2-methyl-1H-indol-3-acetic acid]
ED50 acute inflammation [1]: 10 mg/kg
UD50 ([2]; literature value): 10 mg/kg
UD50/ED50 (safety index) ([2]; literature value): 1
LD50 [3]: 47 mg/kg
LD50/ED50 (therapeutic index) [3]: 4.7

CN1C(C(=O)Nc2ccccn2)=C(O)c2ccccc2S1(=O)=O [Pyroxicam]
ED50 acute inflammation [1]: 20 mg/kg
UD50 ([2]; in vivo): 36 mg/kg
UD50/ED50 (safety index) ([2]; literature value): 1.8
LD50 [3]: 290 mg/kg
LD50/ED50 (therapeutic index) [3]: 15

2-[(2,6-dichlorophenyl) amino] benzene acetic acid [Diclofenac sodium]
UD50 ([2]; literature value): 48 mg/kg

CCCCC1C(=O)N(c2ccccc2)N(c2ccccc2)C1=O [Phenylbutazone]
UD50 ([2]; literature value): 120 mg/kg

COc1ccc2cc([C@H](C)C(=O)OCc3cnc(C)c(OC(=O)[C@@H](C)c4ccc5cc(OC)ccc5c4)c3COC(=O)[C@@H](C)c3ccc4cc(OC)ccc4c3)ccc2c1 [(2S,2'S)-(5-((S)-2-(6-methoxinaft-2-yl)propanoiloxy)-6-methylpyridine-3,4-diyl) bis (methylene) bis (2-(6-methoxynaphth-2-yl) propanoate)]
Efficacy on the model of acute (carrageenin) edema in vivo [4]: not effective enough
Efficacy on the model of subacute (formalin) edema in vivo [5]: pronounced anti-inflammatory effect

COc1ccc2cc([C@H](C)C(=O)O)ccc2c1 [Naproxen, (S)-6-methoxy-α-methyl-2-naphthalenacetic acid, reference compound]
ED50 acute inflammation [1]: 15 mg/kg
Analgesic effect, total/analgesic effect ([6]; females): 10/7
Paw volume 0 hours ([6]; females): 5.0 ± 6.2
Paw volume 3 hours ([6]; females): 5.0 ± 3.2
Analgesic effect, % ([6]; females, control = 100.0): 195.3 ± 125.3%
Dose at which a pronounced anesthetic effect is exhibited ([6]; intragastric): 15 mg/kg
Analgesic effect, total/analgesic effect ([6]; males): 10/7
Analgesic effect, % ([6]; rat, in vivo): 234.5 ± 160.2%
Paw volume 0 hours ([6]; rat, in vivo): 5.0 ± 2.9
Paw volume 3 hours ([6]; rat, in vivo): 6.7 ± 4.6
IC50 [7]: 9.56 µM
Level of temperature decrease ([8]; 15 mg/kg (or 65 μmol/kg)): 0.74-1.6 °C
Δ t after 2 hours, (M ± SD) ([8]; females): 1.64
Δ t after 3 hours, (M ± SD) ([8]; females): 1.35
Δ t after 4 hours, (M ± SD) ([8]; females): 1.58
Δ t after 5 hours, (M ± SD) ([8]; females): 1.21
Δ t after 6 hours, (M ± SD) ([8]; females): 1.09
Δ t after 7 hours, (M ± SD) ([8]; females): 0.74
Δ t after 2 hours, (M ± SD) ([8]; males): 1.39
Δ t after 3 hours, (M ± SD) ([8]; males): 1.49
Δ t after 4 hours, (M ± SD) ([8]; males): 1.6
Δ t after 5 hours, (M ± SD) ([8]; males): 1.51
Δ t after 6 hours, (M ± SD) ([8]; males): 1.53
Δ t after 7 hours, (M ± SD) ([8]; males): 1.44
UD50 ([2]; literature value): 49 mg/kg

CC(=O)Oc1ccccc1C(=O)O [Acetylsalicylic acid]
ED50 acute inflammation [1]: 98 mg/kg
UD50 ([2]; literature value): 240 mg/kg
UD50/ED50 (safety index) ([2]; literature value): 2.45
LD50 [3]: 1600 mg/kg
LD50/ED50 (therapeutic index) [3]: 16
